Test [1] relates to HUVEC: non-transformed early passage human umbilical vein endothelial cells. Description: In vitro anti-proliferative activity, BrdU incorporation, HUVEC. The class given is cell-based. Particulars: 50% inhibition of proliferation, BrdU incorporation into DNA. The method, then: (§1) Determination of in vitro anti-proliferative activity of substituted estradiol analogs: In vitro anti-proliferative or anti-mitogenic activity was determined using a commercially available cell-based assay in 96-well tissue culture plates with assessment of proliferation by evaluating DNA synthesis through incorporation into DNA of immuno-reactive (BrdU) nucleotides. The cell types used are commercially available (MDA-MB-231: breast cancer; U87-MG: glioblastoma; PC3: prostate cancer; HUVEC: non-transformed early passage human umbilical vein endothelial cells). These assays, and the many assay variations possible to determine in vitro anti-proliferative or anti-mitogenic activity, are well known to those skilled in the art. The concentration which causes 50% inhibition of proliferation (IC50) was estimated from a dose-response curve generally carried out with a range of concentrations from ≧100 microg/mL to ≦0.01 microg/mL.
(In general: Incorporation of labelled thymidine or its analogues reports DNA synthesis.)

Another test concerns PC3: prostate cancer. The test can be described thus: In vitro anti-proliferative activity, BrdU incorporation, PC3. The class given is cell-based. The following applies: PC3 cells, 50% inhibition of proliferation, BrdU incorporation into DNA. The method, then: as §1
Test [2] relates to MDA-MB-231: breast cancer. The test can be described thus: In vitro anti-proliferative activity, BrdU incorporation, MDA-MB-231. The class given is cell-based. The following applies: MDA-MB-231 cells, 50% inhibition of proliferation, BrdU incorporation into DNA. As for the experimental part:
as §1

A further test concerns U87-MG: glioblastoma. Description: In vitro anti-proliferative activity, BrdU incorporation, U87-MG. The class given is cell-based. The following applies: U87-MG cells, 50% inhibition of proliferation, BrdU incorporation into DNA. As for the experimental part: as §1
The test system of test [3] is chick embryo chorioallantoic membrane. The test can be described thus: Chick embryo chorioallantoic membrane (CAM) assay. In kind it is in vivo. Particulars: 100 μg methylcellulose disk, after 48 hours. An excerpt: Anti-proliferative activity can be evaluated in situ by testing the ability of an improved estradiol derivative to inhibit the proliferation of new blood vessel cells (angiogenesis). A suitable assay is the chick embryo chorioallantoic membrane (CAM) assay described by Crum et al. Science 230:1375 (1985). See also, U.S. Pat. No. 5,001,116, hereby incorporated by reference, which describes the CAM assay. Briefly, fertilized chick embryos are removed from their shell on day 3 or 4, and a methylcellulose disc containing the drug is implanted on the chorioallantoic membrane. The embryos are examined 48 hours later and, if a clear avascular zone appears around the methylcellulose disc, the diameter of that zone is measured.

The term IC50 denotes the concentration needed to halve the response being measured. The low end stands for higher potency, the high end for lower potency.

As for `CCOc1cc2c(cc1N)CC[C@@H]1[C@@H]2CC[C@]2(C)C(=O)CC[C@@H]12` [Compound 35, 3-Amino-2-ethoxyestra-1,3,5(10)-trien-17-one], the half-maximal inhibitory concentration (IC50) in test [1] (Homo sapiens) worked out at 16.5 ± 2.02 µM; in the test on PC3: prostate cancer (Homo sapiens, PC-3) it was 9.25 ± 1.58 µM; in test [2] (Homo sapiens) it was 10.6 ± 2.98 µM; with U87-MG: glioblastoma (Homo sapiens, U-87 MG), 26.1 ± 1.4 µM.
As for `C=C1CC[C@H]2[C@@H]3CCc4cc(NC=O)c(OC)cc4[C@H]3CC[C@]12C` [Compound 88, 3-formamide-17-methylene-2-methoxyestra-1,3,5(10)-triene], the half-maximal inhibitory concentration (IC50) came out at 0.22 ± 0.03 µM in test [1], 0.24 ± 0.06 µM in the test on PC3: prostate cancer, 0.3 ± 0.08 µM in test [2] and 0.53 ± 0.24 µM in the test with U87-MG: glioblastoma.
Consider `COc1cc2c(cc1N)CC[C@@H]1[C@@H]2CC[C@]2(C)C(C)CC[C@@H]12` (stereo partly drawn) [Compound 133, 3-amino-17-methyl-2-methoxyestra-1,3,5(10)-triene], for which the 50% inhibitory concentration (IC50) was determined as 2.65 ± 0.77 µM in test [1] (Homo sapiens); 7.16 ± 1.42 µM in the test on PC3: prostate cancer (Homo sapiens, PC-3); 7.31 ± 0.58 µM in test [2] (Homo sapiens); 14.87 ± 0.01 µM in the test on U87-MG: glioblastoma (Homo sapiens, U-87 MG).
Regarding `CC=C1CCC2C3CCc4cc(O)c(OC)cc4C3CCC12C` (stereo not drawn) [Compound 13, 2-Methoxy-19-norpregna-1,3,5(10)17(20)-tetraene-3-ol], the half-maximal inhibitory concentration (IC50) was 0.37 ± 0.08 µM in test [1], 1.15 ± 0.4 µM in the test with PC3: prostate cancer, 2.63 ± 0.2 µM in test [2] and 2.37 ± 0.34 µM in the test on U87-MG: glioblastoma.
Regarding `CCOc1cc2c(cc1OS(N)(=O)=O)CC[C@@H]1[C@@H]2CC[C@]2(C)C(=O)CC[C@@H]12` [Compound 20, 3-sulfamate-2-ethoxyestra-1,3,5(10)-trien-17-one], the IC50 is 2.59 ± 0.25 µM in test [1], 8.93 ± 0.61 µM in the test on PC3: prostate cancer, 7.52 ± 2.04 µM in test [2] and 19.8 ± 2.32 µM with U87-MG: glioblastoma.
Consider `CCOc1cc2c(cc1NC=O)CC[C@@H]1[C@@H]2CC[C@]2(C)C(=O)CC[C@@H]12` [Compound 44A, 3-Formamide-2-ethoxyestra-1,3-5(10)-trien-17-one], for which the 50% inhibitory concentration (IC50) in test [1] was determined as 13.2 ± 2.2 µM; with PC3: prostate cancer it was 27.7 ± 0.62 µM; in test [2] it was 24.9 ± 5.63 µM; in the test on U87-MG: glioblastoma, 21.1 µM.
Take `COc1cc2c(cc1NC=O)CC[C@@H]1[C@@H]2CC[C@]2(C)C(O)CC[C@@H]12` (stereo partly drawn) [Compound 43, 3-Formamide-2-methoxyestra-1,3-5(10)-trien-17-ol]: the half-maximal inhibitory concentration (IC50) in test [1] stood at 0.07 ± 0.02 µM; with PC3: prostate cancer, 1.34 ± 0.02 µM; in test [2] it was 0.78 ± 0.01 µM; in the test on U87-MG: glioblastoma, 2.7 ± 0.22 µM.
For `CC=C1CC[C@H]2[C@@H]3CCc4cc(N)c(OC)cc4[C@H]3CC[C@]12C` [Compound 109, 3-amino-17-ethylene-2-methoxyestra-1,3,5(10)-triene] the same measures were 0.72 ± 0.1 µM, 0.92 ± 0.11 µM, 1.94 ± 0.27 µM and 2.35 ± 0.41 µM.
Turning to `COc1cc2c(cc1N)CC[C@@H]1[C@@H]2CC[C@]2(C)CCC[C@@H]12` [Compound 61, 3-amino-2-methoxyestra-1,3,5(10)-triene], the IC50 in test [1] (Homo sapiens) turned out to be 6.43 ± 1.32 µM; with PC3: prostate cancer (Homo sapiens, PC-3), 8.63 ± 0.18 µM; in test [2] (Homo sapiens) it was 7.62 ± 0.43 µM; with U87-MG: glioblastoma (Homo sapiens, U-87 MG), 10.2 ± 3.78 µM.
On to `COc1cc2c(cc1C(N)=O)CC[C@@H]1[C@@H]2CC[C@]2(C)CCC[C@@H]12` [Compound 58, (2-Methoxyestra-1,3,5(10)-trien-3-yl)-3-carboxamide], for which the IC50 in test [1] came to 1.42 ± 0.41 µM; with PC3: prostate cancer, 2.58 ± 0.36 µM; in test [2], 5.23 ± 1.95 µM; with U87-MG: glioblastoma, 4.52 ± 1.3 µM.
With `COc1cc2c(cc1O)CC[C@@H]1[C@@H]2CC[C@]2(C)[C@@H](O)CC[C@@H]12` [Compound 1, 2-methoxyestradiol, reference compound], the “inhibition of cell mitosis and growth of new blood vessels (CAM)” value in test [3] is “inhibit cell mitosis and the growth of new blood vessels”. For the same compound, the half-maximal inhibitory concentration (IC50) was found to be 0.68 ± 0.15 µM in test [1] (Homo sapiens); 1.08 ± 0.5 µM with PC3: prostate cancer (Homo sapiens, PC-3); 0.69 ± 0.14 µM in test [2] (Homo sapiens).
On to `C=C1CC[C@H]2[C@@H]3CCc4cc(N)c(OCC)cc4[C@H]3CC[C@]12C` [Compound 86, 3-amino-17-methylene-2-ethoxyestra-1,3,5(10)-triene], for which the IC50 in test [1] (Homo sapiens) was 2.31 ± 0.05 µM; in the test with PC3: prostate cancer (Homo sapiens, PC-3) it was 2.75 ± 0.22 µM; in test [2] (Homo sapiens) it was 2.13 ± 0.12 µM; in the test on U87-MG: glioblastoma (Homo sapiens, U-87 MG), 7.29 ± 2.26 µM.

The values above are taken from US7371741B2, “Estradiol derivatives and pharmaceutical compositions using same” (EntreMed, Inc., priority 2003, dated 2008).
